In PubChem BioAssay (NCI):
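In this assay, cells in 96-well plates receive the compound at five concentrations for 48 hours. Endpoints are linearly interpolated between the surrounding concentrations. TGI denotes the concentration required for complete inhibition of growth.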

How the values were obtained:
Test in all cases: growth of human tumour cells (NCI), 48 h
UO-31 renal = system: UO-31 renal
OVCAR-5 ovarian = system: OVCAR-5 ovarian
PC-3 prostate = system: PC-3 prostate
MALME-3M melanoma = system: MALME-3M melanoma
KM12 colon = system: KM12 colon
786-0 renal = system: 786-0 renal
DMS 273 small cell lung = system: DMS 273 small cell lung
HS 578T breast = system: HS 578T breast
UACC-257 melanoma = system: UACC-257 melanoma
HOP-92 NSCLC = system: HOP-92 NSCLC
U251 CNS = system: U251 CNS
HCT-15 colon = system: HCT-15 colon
MOLT-4 leukemia = system: MOLT-4 leukemia
RXF-631 renal = system: RXF-631 renal
RXF 393 renal = system: RXF 393 renal
SF-295 CNS = system: SF-295 CNS
KM20L2 colon = system: KM20L2 colon
M19-MEL melanoma = system: M19-MEL melanoma
NCI-H460 lung = system: NCI-H460 lung
HOP-18 NSCLC = system: HOP-18 NSCLC
OVCAR-8 ovarian = system: OVCAR-8 ovarian
SF-268 CNS = system: SF-268 CNS
EKVX NSCLC = system: EKVX NSCLC
NCI-H226 lung = system: NCI-H226 lung
SNB-19 CNS = system: SNB-19 CNS
SK-MEL-5 melanoma = system: SK-MEL-5 melanoma
LOX IMVI melanoma = system: LOX IMVI melanoma
SW-620 colon = system: SW-620 colon
NCI/ADR-RES ovarian = system: NCI/ADR-RES ovarian
MDA-N = system: MDA-N
COLO 205 colon = system: COLO 205 colon
SK-MEL-28 melanoma = system: SK-MEL-28 melanoma
A549 NSCLC = system: A549 NSCLC
HOP-62 NSCLC = system: HOP-62 NSCLC
SN12C renal = system: SN12C renal
HT29 colon = system: HT29 colon
T-47D breast = system: T-47D breast
XF 498 CNS = system: XF 498 CNS
SNB-75 CNS = system: SNB-75 CNS
OVCAR-4 ovarian = system: OVCAR-4 ovarian
CAKI-1 renal = system: CAKI-1 renal
TK-10 renal = system: TK-10 renal
NCI-H23 lung = system: NCI-H23 lung
NCI-H522 lung = system: NCI-H522 lung
DLD-1 colon = system: DLD-1 colon
IGROV1 ovarian = system: IGROV1 ovarian
DU-145 prostate = system: DU-145 prostate
SR leukemia = system: SR leukemia
MDA-MB-231 breast = system: MDA-MB-231 breast
BT-549 breast = system: BT-549 breast
SK-MEL-2 melanoma = system: SK-MEL-2 melanoma
SF-539 CNS = system: SF-539 CNS
DMS 114 small cell lung = system: DMS 114 small cell lung
HCC-2998 colon = system: HCC-2998 colon
HCT-116 colon = system: HCT-116 colon
HL-60(TB) leukemia = system: HL-60(TB) leukemia
CCRF-CEM leukemia = system: CCRF-CEM leukemia
A498 renal = system: A498 renal
K-562 leukemia = system: K-562 leukemia
UACC-62 melanoma = system: UACC-62 melanoma
SK-OV-3 ovarian = system: SK-OV-3 ovarian
SNB-78 CNS = system: SNB-78 CNS
MDA-MB-435 = system: MDA-MB-435
ACHN renal = system: ACHN renal
RPMI-8226 leukemia = system: RPMI-8226 leukemia
OVCAR-3 ovarian = system: OVCAR-3 ovarian
LXFL 529 NSCLC = system: LXFL 529 NSCLC
M14 melanoma = system: M14 melanoma

COC(=O)/C(=N\Nc1nnc(C)n1N)C(C#N)c1ccccc1 (stereo not drawn)
TGI (UO-31 renal): > 100 µM | TGI (OVCAR-5 ovarian): > 100 µM | TGI (PC-3 prostate): > 100 µM | TGI (MALME-3M melanoma): 46.5 µM | TGI (KM12 colon): > 100 µM | TGI (786-0 renal): > 55.1 µM | TGI (DMS 273 small cell lung): > 100 µM | TGI (HS 578T breast): > 100 µM | TGI (UACC-257 melanoma): > 100 µM | TGI (HOP-92 NSCLC): > 100 µM | TGI (U251 CNS): > 100 µM | TGI (HCT-15 colon): > 100 µM | TGI (MOLT-4 leukemia): > 100 µM | TGI (RXF-631 renal): > 100 µM | TGI (RXF 393 renal): > 100 µM | TGI (SF-295 CNS): > 100 µM | TGI (KM20L2 colon): > 100 µM | TGI (M19-MEL melanoma): 32.8 µM | TGI (NCI-H460 lung): > 100 µM | TGI (HOP-18 NSCLC): > 100 µM | TGI (OVCAR-8 ovarian): > 100 µM | TGI (SF-268 CNS): > 100 µM | TGI (EKVX NSCLC): > 100 µM | TGI (NCI-H226 lung): > 100 µM | TGI (SNB-19 CNS): > 100 µM | TGI (SK-MEL-5 melanoma): > 100 µM | TGI (LOX IMVI melanoma): > 100 µM | TGI (SW-620 colon): > 100 µM | TGI (NCI/ADR-RES ovarian): > 100 µM | TGI (MDA-N): 44.4 µM | TGI (COLO 205 colon): > 100 µM | TGI (SK-MEL-28 melanoma): > 100 µM | TGI (A549 NSCLC): > 100 µM | TGI (HOP-62 NSCLC): > 100 µM | TGI (SN12C renal): > 66.7 µM | TGI (HT29 colon): > 100 µM | TGI (T-47D breast): > 100 µM | TGI (XF 498 CNS): > 100 µM | TGI (SNB-75 CNS): > 100 µM | TGI (OVCAR-4 ovarian): > 67.4 µM | TGI (CAKI-1 renal): > 100 µM | TGI (TK-10 renal): > 100 µM | TGI (NCI-H23 lung): > 56.1 µM | TGI (NCI-H522 lung): > 100 µM | TGI (DLD-1 colon): > 100 µM | TGI (IGROV1 ovarian): > 100 µM | TGI (DU-145 prostate): > 100 µM | TGI (SR leukemia): > 100 µM | TGI (MDA-MB-231 breast): > 100 µM | TGI (BT-549 breast): > 100 µM | TGI (SK-MEL-2 melanoma): > 100 µM | TGI (SF-539 CNS): > 100 µM | TGI (DMS 114 small cell lung): 42.8 µM | TGI (HCC-2998 colon): > 100 µM | TGI (HCT-116 colon): > 100 µM | TGI (HL-60(TB) leukemia): > 100 µM | TGI (CCRF-CEM leukemia): > 100 µM | TGI (A498 renal): > 100 µM | TGI (K-562 leukemia): > 100 µM | TGI (UACC-62 melanoma): > 100 µM | TGI (SK-OV-3 ovarian): > 100 µM | TGI (SNB-78 CNS): > 100 µM | TGI (MDA-MB-435): 32.5 µM | TGI (ACHN renal): > 71.1 µM | TGI (RPMI-8226 leukemia): > 100 µM | TGI (OVCAR-3 ovarian): > 100 µM | TGI (LXFL 529 NSCLC): > 100 µM | TGI (M14 melanoma): > 100 µM
